Source: patent publication US20160199351A1, “COMPOSITIONS AND METHODS FOR INHIBITING FUNGAL INFECTIONS” (priority 2015, published 2016)
Converted amounts (≈) assume the structure as drawn. Read-outs that look alike come from different tables or passages of the source.

How the values were obtained:
[1] = system: Aspergillus fumigatus; assay: Recovery of Aspergillus fumigatus mycelia growth after removal of antifungal drugs (MTT); type: cell-based; settings: treated 12 hours, drug removed, 24 hours more
[2] = system: Trichophyton rubrum; assay: Trichophyton rubrum mycelia growth dose-response (MIC by linear regression); type: cell-based; settings: for MIC: Trichophyton rubrum, FIG. 3 dose-response, linear regression
[3] = system: Paeceilomyces variotii; assay: MIC, CLSI M38-A2 broth dilution (Table 1); type: cell-based; settings: isolate QC
[4] = system: Rhizopus oryzae; assay: MIC, CLSI M38-A2 broth dilution (Table 1); type: cell-based
[5] = system: Lomentospora prolificans; assay: MIC, CLSI M38-A2 broth dilution (Table 1); type: cell-based; settings: isolate LP1, 48 hours
[6] = system: Apophysomyces; assay: MIC, CLSI M38-A2 broth dilution (Table 1); type: cell-based
[7] = system: Coccidioides immitis/posadasii; type: cell-based
[8] = system: Fusarium sp.; assay: MIC (Table 5); type: cell-based; settings: for MIC / MIC50: Fusarium; for MIC: read-out: MIC 100%
[9] = system: P. variotii; assay: MIC (Table 5); settings: Paecilomyces variotii; for MIC: read-out: MIC 100%
[10] = system: Scedosporium sp.; assay: MIC (Table 5)
[11] = system: Rhizopus oryzae; assay: MIC (Table 5); settings: Rhizopus arrhizus

NCC(=O)Nc1ccc(-n2nc(C(F)(F)F)cc2-c2ccc3c(ccc4ccccc43)c2)cc1 [AR-12, 2-amino-N-(4-(5-(phenanthren-2-yl)-3-(trifluoromethyl)-1H-pyrazol-1-yl)phenyl)acetamide]
recovery of mycelia growth after removal of drug [1]: no viable Aspergillus fumigatus mycelia
MIC ([2]; read-out: MIC, concentration resulting in 50% inhibition of mycelia growth): 4.5 µM (≈ 2.07 µg/mL)
MIC ([2]; read-out: MIC, concentration resulting in 90% inhibition of mycelia growth): 11.3 µM (≈ 5.2 µg/mL)
concentration that effectively prevents growth ([2]; stated for all three fungi): 8 to 40 µM
MIC 50% [3]: 4 gg/m1
MIC 100% [3]: 4 gg/m1
MIC 50% ([4]; isolate RO1, 24 hours): 4 gg/m1
MIC 100% ([4]; isolate RO1, 24 hours): 4 gg/m1
MIC 50% ([4]; isolate RO2, 24 hours): 4 gg/m1
MIC 100% ([4]; isolate RO2, 24 hours): 4 gg/m1
MIC 50% ([4]; isolate RO3, 24 hours): 4 gg/m1
MIC 100% ([4]; isolate RO3, 24 hours): 4 gg/m1
MIC 50% [5]: 2 gg/m1
MIC 100% [5]: 2 gg/m1
MIC 50% ([6]; isolate A1, 24 hours): 2 gg/m1
MIC 100% ([6]; isolate A1, 24 hours): >16 gg/m1
MIC 50% ([6]; isolate A2, 24 hours): 2 gg/m1
MIC 100% ([6]; isolate A2, 24 hours): >16 gg/m1
MIC 50% ([7]; isolate Cocci1, 48 hours): 1 gg/m1
MIC 100% ([7]; isolate Cocci1, 48 hours): 1 gg/m1
MIC 50% ([7]; isolate Cocci2, 48 hours): 1 gg/m1
MIC 100% ([7]; isolate Cocci2, 48 hours): 1 gg/m1
MIC 50% ([7]; isolate Cocci3, 48 hours): 2 gg/m1
MIC 100% ([7]; isolate Cocci3, 48 hours): 2 gg/m1
MIC ([8]; 24 h, isolate F-1, 24 hrs): 2 µg/mL (≈ 4.34 µM)
MIC ([8]; 24 h, isolate F-2, 24 hrs): 2 µg/mL (≈ 4.34 µM)
MIC ([8]; 24 h, isolate F-3, 24 hrs): 2 µg/mL (≈ 4.34 µM)
MIC50 ([8]; isolate F-1, 48/72 hrs): 4 µg/mL (≈ 8.69 µM)
MIC ([8]; isolate F-1, 48/72 hrs): 4 µg/mL (≈ 8.69 µM)
MIC ([8]; isolate F-2, 48/72 hrs): 4 µg/mL (≈ 8.69 µM)
MIC ([8]; isolate F-3, 48/72 hrs): 4 µg/mL (≈ 8.69 µM)
MIC50 ([8]; isolate F-1, 24 hrs): 2 µg/mL (≈ 4.34 µM)
MIC 50% ([8]; isolate F-2, 48/72 hrs): 4 µg/mL (≈ 8.69 µM)
MIC 50% ([8]; isolate F-2, 24 hrs): 2 µg/mL (≈ 4.34 µM)
MIC 50% ([8]; isolate F-3, 48/72 hrs): 4 µg/mL (≈ 8.69 µM)
MIC 50% ([8]; isolate F-3, 24 hrs): 2 µg/mL (≈ 4.34 µM)
MIC50 [9]: 4 µg/mL (≈ 8.69 µM)
MIC50 ([9]; 24 h): 2 µg/mL (≈ 4.34 µM)
MIC ([9]; 24 h): 4 µg/mL (≈ 8.69 µM)
MIC [9]: 4 µg/mL (≈ 8.69 µM)
MIC50 ([10]; 24 h, isolate S-2, 24 hrs): 2 µg/mL (≈ 4.34 µM)
MIC ([10]; 24 h, read-out: MIC 100%, isolate S-2, 24 hrs): 2 µg/mL (≈ 4.34 µM)
MIC50 ([10]; isolate S-1, 48/72 hrs): 2 µg/mL (≈ 4.34 µM)
MIC50 ([10]; isolate S-2, 48/72 hrs): 4 µg/mL (≈ 8.69 µM)
MIC ([10]; read-out: MIC 100%, isolate S-1, 48/72 hrs): 4 µg/mL (≈ 8.69 µM)
MIC ([10]; read-out: MIC 100%, isolate S-2, 48/72 hrs): 4 µg/mL (≈ 8.69 µM)
MIC50 ([11]; 24 h, isolate R-1, 24 hrs): 4 µg/mL (≈ 8.69 µM)
MIC50 ([11]; 24 h, isolate R-2, 24 hrs): 4 µg/mL (≈ 8.69 µM)
MIC50 ([11]; 24 h, isolate R-3, 24 hrs): 4 µg/mL (≈ 8.69 µM)
MIC50 ([11]; 24 h, isolate R-4, 24 hrs): 4 µg/mL (≈ 8.69 µM)
MIC50 ([11]; 24 h, isolate R-5, 24 hrs): 2 µg/mL (≈ 4.34 µM)
MIC50 ([11]; 24 h, isolate R-6, 24 hrs): 4 µg/mL (≈ 8.69 µM)
MIC ([11]; 24 h, read-out: MIC 100%, isolate R-1, 24 hrs): 4 µg/mL (≈ 8.69 µM)
MIC ([11]; 24 h, read-out: MIC 100%, isolate R-2, 24 hrs): 4 µg/mL (≈ 8.69 µM)
MIC ([11]; 24 h, read-out: MIC 100%, isolate R-3, 24 hrs): 4 µg/mL (≈ 8.69 µM)
MIC ([11]; 24 h, read-out: MIC 100%, isolate R-4, 24 hrs): 4 µg/mL (≈ 8.69 µM)
MIC ([11]; 24 h, read-out: MIC 100%, isolate R-5, 24 hrs): 4 µg/mL (≈ 8.69 µM)
MIC ([11]; 24 h, read-out: MIC 100%, isolate R-6, 24 hrs): 4 µg/mL (≈ 8.69 µM)
MIC50 ([11]; isolate R-1, 48/72 hrs): 4 µg/mL (≈ 8.69 µM)
MIC50 ([11]; isolate R-2, 48/72 hrs): 8 µg/mL (≈ 17.4 µM)
MIC50 ([11]; isolate R-3, 48/72 hrs): 4 µg/mL (≈ 8.69 µM)
MIC50 ([11]; isolate R-4, 48/72 hrs): 4 µg/mL (≈ 8.69 µM)
MIC50 ([11]; isolate R-5, 48/72 hrs): 4 µg/mL (≈ 8.69 µM)
